Assay results from paper PMC8058344, “ARIH1 signaling promotes anti-tumor immunity by targeting PD-L1 for proteasomal degradation” (Nature Communications, 2021).

Experiments:
PD-L1 Ser279 = test: Immunoblots with phospho-specific antibody against PD-L1 Ser279; type: cell-based, human; conditions: endogenous (H1975, 2 h) and recombinant (HEK293T, 10 μM, 2 h) PD-L1
Method: Fig. 2 Phosphorylation on S279/S283 impairs the stability of PD-L1. a Mapping PD-L1 phosphorylation sites following ES-072 treatment. HEK293T cells were transfected with Flag-PD-L1 and treated with 10 μM ES-072 for 48 h. Immunoprecipitated PD-L1 was analyzed by mass spectrometry following phosphopeptide enrichment. Peptide ionization data corresponding to Ser279/283 are shown. b Schematic diagram of phosphorylated sites on PD-L1. Full-length PD-L1 was separated into an extracellular domain (ECD) and intracellular domain (ICD). SP: signal peptide; TM: transmembrane domain. c Schematic diagram of phosphorylated sites, S279 and S283 in the ICD of PD-L1. Positions of phosphorylated sites were labeled in red. […] Scale bars represent 50 μm. i, j Quantification of IHC analysis for p-PD-L1 (Ser279) (i) and PD-L1 (j) in h. […]
(§1) For western blot analysis, cells were collected and washed with PBS, then lysed in radioimmunoprecipitation assay (RIPA) buffer (1% Triton X-100, 100 mM Tris-HCl pH 8.8, 100 mM NaCl, 0.5 mM EDTA). […] The supernatant was collected and the protein concentration was measured by bicinchoninic acid reaction. […] Signals were detected using chemiluminescence reagents (#4AW001-500, 4A649 Biotech, Co.).

PD-L1 in U937 cells = test: PD-L1 levels in U937 cells by western blotting and flow cytometry; type: cell-based, human; conditions: western blotting and flow cytometry, 10 μM, 12 h
Method: Fig. 1 EGFR inhibitors were screened to reduce membrane PD-L1 levels. a High-throughput screening of 2125 FDA-approved drugs or drug candidates. U937 cells were incubated with IFNγ (100 ng/mL) for 48 h, treated with the drugs at 10 μM for 12 h. Ruxolitinib (Rux) was used as a positive control. The hit compounds that induced the decrease of PD-L1 levels are shown in blue. The depth of blue represents decreased level of PD-L1. The heatmap represents the targeted pathways obtained from the high-throughput screening, based upon decreased membrane PD-L1 level detected by flow cytometry. b Immunoblotting of PD-L1 in U937 cells treated with ES-072 (ES) or AZD9291 (AZD) at indicated concentrations for 12 h. ES and AZD are EGFR inhibitors. c, d Median fluorescence intensity (MFI) (c) and relative quantification (d) of PD-L1 in U937 cells treated with 10 μM ES-072 or 10 μM AZD9291 for 12 h. Data represent means ± SEM, n = 18, 6 independent repeats, ****P < 0.0001. e–g Immunoblotting (e, f) and flow cytometry (g) analysis of PD-L1 levels in U937 cells treated with 10 μM ES-072 or 10 μM AZD9291 for the indicated times. h, i Immunoblottings (h) of PD-L1 and β-TrCP, relative quantification (i) of PD-L1 MFI in H1975 cells transfected with non-targeting siRNA (si-CTRL) or β-TrCP siRNAs (si-β-TrCP) and treated with or without 10 μM ES-072/AZD9291 for 12 h. Data represent means ± SEM, n = 9, 3 independent repeats, NS: no significant; ****P < 0.0001. j–l Immunoblotting (j) and flow cytometry analysis (k) with relative quantification (l) of PD-L1 in H1975 cells treated with 10 μM ES-072 or AZD9291, and/or 5 μM LY2090314 (LY) for 12 h. LY is a GSK3 inhibitor. […]
as §1, with “Co.). […]” for “Co.).”

EGFR L858R = EGFR L858R (Homo sapiens, UniProt P00533, L858R); test: In vitro kinase specificity profiling; type: biochemical
EGFR L858R, sequence (P00533 25-1210 L858R): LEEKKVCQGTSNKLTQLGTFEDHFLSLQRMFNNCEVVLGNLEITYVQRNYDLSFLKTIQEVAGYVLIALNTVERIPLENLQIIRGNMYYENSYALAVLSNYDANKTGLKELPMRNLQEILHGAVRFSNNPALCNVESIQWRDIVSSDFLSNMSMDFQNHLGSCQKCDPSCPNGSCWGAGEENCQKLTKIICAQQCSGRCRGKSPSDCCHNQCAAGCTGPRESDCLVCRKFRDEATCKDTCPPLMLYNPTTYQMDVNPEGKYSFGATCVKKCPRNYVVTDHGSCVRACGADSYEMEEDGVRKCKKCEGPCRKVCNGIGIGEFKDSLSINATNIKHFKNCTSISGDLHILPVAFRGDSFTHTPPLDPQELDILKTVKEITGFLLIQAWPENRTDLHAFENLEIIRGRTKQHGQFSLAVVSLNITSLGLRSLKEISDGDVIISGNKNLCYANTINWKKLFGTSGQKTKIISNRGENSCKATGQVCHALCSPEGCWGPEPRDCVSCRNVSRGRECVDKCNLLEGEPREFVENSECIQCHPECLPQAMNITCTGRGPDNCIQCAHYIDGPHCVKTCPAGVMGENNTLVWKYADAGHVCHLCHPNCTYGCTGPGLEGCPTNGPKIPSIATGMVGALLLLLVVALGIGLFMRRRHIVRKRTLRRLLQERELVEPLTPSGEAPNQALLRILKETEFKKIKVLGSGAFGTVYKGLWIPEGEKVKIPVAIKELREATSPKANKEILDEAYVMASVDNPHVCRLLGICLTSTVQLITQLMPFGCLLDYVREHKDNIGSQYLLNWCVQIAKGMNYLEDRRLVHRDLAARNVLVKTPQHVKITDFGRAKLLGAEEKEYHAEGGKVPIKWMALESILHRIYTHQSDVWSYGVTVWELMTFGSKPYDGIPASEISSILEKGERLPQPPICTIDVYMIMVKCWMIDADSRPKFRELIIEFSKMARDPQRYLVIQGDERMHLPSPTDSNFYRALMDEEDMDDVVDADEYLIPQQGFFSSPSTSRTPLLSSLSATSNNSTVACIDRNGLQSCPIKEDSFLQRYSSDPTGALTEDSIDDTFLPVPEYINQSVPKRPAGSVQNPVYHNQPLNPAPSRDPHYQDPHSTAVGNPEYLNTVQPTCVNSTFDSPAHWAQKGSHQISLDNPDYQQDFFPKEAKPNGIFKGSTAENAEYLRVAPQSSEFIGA

IC50 (EGFR L858R): 2.7 nM
Structure (SMILES): C=CC(=O)Nc1cccc(Nc2nc(Nc3ccc(N4CCN(C)CC4)nc3OC)ncc2C(F)(F)F)c1 [ES-072]
phosphorylation of PD-L1 at Ser279 (PD-L1 Ser279): robust phosphorylation
IFNγ-induced membranal PD-L1 levels (PD-L1 in U937 cells): dramatically reduced
